This note sets out measurements from patent US20190015650A1, “MICRONEEDLE TATTOO PATCHES AND USE THEREOF” (Massachusetts Institute of Technology, priority 2017, published 2019).

Data set [1] can be described thus: Photostability of dyes exposed to compact fluorescent (CFL) bulb. The class given is physicochemical. As for the experimental part: Dyes were prepared in solution (1 mM) or suspension (1 mg/mL) and exposed to light from a compact fluorescent (CFL) bulb (FIG. 9A). 55 fluorophores were tested including organic, encapsulated organic, inorganic, inorganic nanoparticle, tattoo, and semiconducting polymer dots.

A short description of data set [2]: Chemical stability of dyes: hydrogen peroxide and pH. It counts as physicochemical. As for the experimental part: Additional evaluations on the dyes to withstand oxidative stress were tested by submerging the dye in 3 mM or 3 micromolar hydrogen peroxide, and compared for signal before and after such treatment (FIG. 9B). 23 fluorophores were tested.
The pH stability of the dyes was evaluated by submerging in different pH ranging from 1 to 13 (FIG. 9C). 17 fluorophores were tested.

As for Rhodamine, the “Performance: photostability” value in data set [1] is given as “Poor photostability”.

For `CCN1/C(=C/C=C/C=C/C2=[N+](CCCCCC(=O)O)c3ccc(S(=O)(=O)O)cc3C2(C)C)C(C)(C)c2cc(S(=O)(=O)[O-])ccc21` [CY5], the “Performance: photostability” value in data set [1] is on record as “Poor photostability”. The “Performance: chemical stability” value in data set [2] was “Poor chemical stability”.

As to `CCCN1/C(=C/C=C2\CCCC(/C=C/C3=[N+](CCC)c4ccccc4C3(C)C)=C2Cl)C(C)(C)c2ccccc21.[I-]` [IR780], the “Performance: photostability” value in data set [1] is given as “Poor photostability”. For the same compound, in data set [2], the “Performance: chemical stability” value is given as “Poor chemical stability”.

Take `CCN1C(=CC=CC=CC=CC2=[N+](CCCCCC(=O)O)c3ccc(S(=O)(=O)O)cc3C2(C)C)C(C)(C)c2cc(S(=O)(=O)[O-])ccc21` [CY7]: the “Performance: photostability” value in data set [1] is listed as “Poor photostability”. Moreover, the “Performance: chemical stability” value in data set [2] was “Poor chemical stability”.

`O=C1OC2(c3ccc(O)cc3Oc3cc(O)ccc32)c2ccccc21` [Fluorescein]: the “Performance: photostability” value in data set [1] is listed as “Poor photostability”.
